The values below come from patent US8227450B2, “Lysine-based prodrugs of aspartyl protease inhibitors and processes for their preparation” (priority 2005, dated 2012).

The data set in a line: Bioavailability: plasma concentration after oral administration to rats. The data set is classed as in vivo, male Sprague-Dawley rats. Conditions: for Presence of the unchanged prodrug in the blood samples: 50 mg/kg po as aqueous solution (PBS), HPLC-MS; for Presence of the unchanged prodrug in the blood samples / Delivery of parent drug (PL-100 / PL-337) compared to non-aqueous formulations of the parent drug: rat; for Delivery of parent drug (PL-100 / PL-337) compared to non-aqueous formulations of the parent drug: aqueous dosing, 50 mg/kg po; for AUC: rat plasma, 3 rats. Here is the method: To assess the extent of in vivo cleavage of the phosphate group from the putative compounds, PL-100, PL-462 (based on PL-100), PL-337 and PL-515 (based on PL-337) compounds were administered per os (po) (50 mg/kg) to male Sprague-Dawley rats and their plasma concentration measured at different time intervals post-administration. All test articles (PL-100, PL-462, PL-337 and PL-515) were prepared in different vehicle at the final concentration of 25 mg/mL. The vehicle composition is as follows: (1) 20% ethanol; 50% propylene glycol; 0.05% w/v Tween 20 and water (Mix); (2) PBS buffer (PBS). Test articles were administered to male Sprague-Dawley rats at a single oral dose of 50 mg/kg. Each article was tested in three rats. Blood samples (0.2-0.3 mL) were collected at the post-dose time of 10, 20, 40, 60, 120, 180 and 360 minutes. The harvested blood was centrifuged to isolate plasma. The resulting plasma was separated and stored at −70° C. Plasma samples together with standards and quality control samples were treated to precipitate proteins, then analyzed by HPLC-MS, for the presence of PL-462, PL-100, PL-515 and PL-337.

The mark [1] stands for this setting: prodrug dosed 50 mg/Kg po in PBS vehicle, parent drug detected (PL-100 or PL-337).
Where [2] appears, read: parent drug dosed 50 mg/Kg po in Mix vehicle (20% ethanol; 50% propylene glycol; 0.05% w/v Tween 20 and water).

For `COC(=O)N[C@H](C(=O)NCCCC[C@@H](COP(=O)([O-])[O-])N(CC(C)C)S(=O)(=O)c1ccc(N)cc1)C(c1ccccc1)c1ccccc1.[Na+].[Na+]` [PL-462, (1S,5S)-(1-{5-[(4-amino-benzenesulfonyl)-isobutyl-amino]-6-phosphonooxy-hexylcarbamoyl}-2,2-diphenyl-ethyl)-carbamic acid methyl ester sodium salt], the “Presence of the unchanged prodrug in the blood samples” value is “None of the PL-462 and PL-515 compounds, delivered as aqueous solutions, are detected”; the “Delivery of parent drug (PL-100 / PL-337) compared to non-aqueous formulations of the parent drug” value was “equivalent to slightly superior”. Under setting [1], the AUC was 0.816 ± 0.295 μg/hr * ml.

For `COC(=O)N[C@H](C(=O)NCCCC[C@@H](CO)N(CC(C)C)S(=O)(=O)c1ccc(N)cc1)C(c1ccccc1)c1ccccc1` [PL-100, (1S,5S)-(1-{5-[(4-amino-benzenesulfonyl)-isobutyl-amino]-6-hydroxy-hexylcarbamoyl}-2,2-diphenyl-ethyl)-carbamic acid methyl ester], the AUC under setting [2] is listed as 0.675 ± 0.171 μg/hr * ml.

On to `COC(=O)N[C@H](C(=O)NCCCC[C@@H](COP(=O)(O)O)N(CC(C)C)S(=O)(=O)c1ccc(N)c(F)c1)C(c1ccccc1)c1ccccc1` [PL-515, (1S,5S)-(1-{5-[(4-amino-3-fluoro-benzenesulfonyl)-isobutyl-amino]-6-phosphonooxy-hexylcarbamoyl}-2,2-diphenyl-ethyl)-carbamic acid methyl ester], for which the “Presence of the unchanged prodrug in the blood samples” value was “None of the PL-462 and PL-515 compounds, delivered as aqueous solutions, are detected”; the “Delivery of parent drug (PL-100 / PL-337) compared to non-aqueous formulations of the parent drug” value is reported as “equivalent to slightly superior”. In addition, under setting [1], the AUC is on record as 1.075 ± 0.625 μg/hr * ml.

With `COC(=O)N[C@H](C(=O)NCCCC[C@@H](CO)N(CC(C)C)S(=O)(=O)c1ccc(N)c(F)c1)C(c1ccccc1)c1ccccc1` [PL-337, (1-{5-[(4-amino-3-fluoro-benzenesulfonyl)-isobutyl-amino]-6-hydroxy-hexylcarbamoyl}-2,2-diphenyl-ethyl)-carbamic acid methyl ester], the AUC under setting [2] was 1.180 ± 0.196 μg/hr * ml.
